3 compounds from US5866380A, “Methods for bioconversion of ferulic acid to vanillic acid or vanillin and for the bioconversion of vanillic acid to vanillin using filamentous fungi” (Institut National De La Recherche Agronomique-I.N.R.A., priority 1994, dated 1999) can be followed below.

One data set has as its system fungi. Put plainly: toxicity of ferulic acid, vanillic acid and vanillin to the fungi. It counts as cell-based, filamentous fungi. The note with it: for concentration toxic to the fungi: concentration in the culture.
The nature of data set [1]: binding of vanillin by nonionic resin XAD2. It counts as physicochemical.
Data set [2] can be described thus: binding of produced vanillin to XAD2 resin in Phanerochaete chrysosporium culture (experiment 2). It counts as physicochemical. The note with it: experiment 2, XAD2 10% (weight/volume), 6 days of growth. Here is the method:
The strain used is the Phanerochaete chrysosporium strain MIC 247, deposited on 31st Aug. 1994 with the Collection Nationale de Culture de Microorganismes under the number I-1471. This strain was cultured as described in Example 1 above.
Vanillic acid was added sequentially, namely: 0.3 g/l at the end of 3 days of culture, then 0.3 g/l every day.
For experiment 2, sterile resin XAD2 (Amberlite) is added in the proportion of 10% (weight/volume) after 3 days+6 h of culture of the fungus, that is to say 6 h after adding vanillic acid (at a concentration of 300 mg/l).
Vanillic acid and its metabolites are assayed as described in Example 1 above.

In the case of `COc1cc(/C=C/C(=O)O)ccc1O` [ferulic acid], the “concentration toxic to the fungi” value with fungi is reported as “above 2 g/l”.
As to `COc1cc(C(=O)O)ccc1O` [vanillic acid], the “concentration toxic to the fungi” value with fungi was “above 2 g/l”.
On to `COc1cc(C=O)ccc1O` [vanillin], for which the “concentration toxic to the fungi” value in the data set with fungi is listed as “above 2 g/l”. Besides, the “toxicity for the metabolism of the fungus (in words)” value with fungi (strain that accumulates vanillin (Nidulariales)) is “very quickly becomes toxic for the metabolism of the fungus”. In addition, the “vanillin bound by the resin” value in data set [1] is 98%. Also, the “vanillin produced that has been bound to the resin” value in data set [2] is 94%.
